Measurements taken from patent US8877773B2, “Methods for treating chronic obstructive pulmonary disease” (Indiana University Research and Technology Corporation, priority 2009, dated 2014).

Test system: Orexin A (ORX-A) producing neurons in the DMH/PeF
Experiment: c-Fos induction in ORX neurons of 1-AG and d-AG treated rats
Format: in vivo, rat
Conditions: 1-AG infused into DMH/PeF (3.5 nmol/0.5 μl per hour); vs d-AG treated control rats
Procedure: Methods for perfusion and for verification of cannulae placements in experiment 12 were performed following procedures discussed herein. Briefly, 1-AG or d-AG treated rats received i.v. infusions of either lactate or saline vehicle over 15 min (n=6/group for 4 groups), were immediately tested in the SI test, then anesthetized and perfused with a 4% paraformaldehyde/1.5% sucrose solution and processed for immunohistochemistry 90 min following the onset of the i.v. infusions.
Brain sections from all rats were immunostained with the appropriate primary antibody in a single immunohistochemical run, rather than in batches, with large volume incubations to limit variability in the quality of immunohistochemical staining among brain sections.
Sections were washed in PBS and then incubated in 1% H2O2 in PBS for 20 min. Sections were washed in PBS then PBST then incubated 12-16 h in PBST with primary antibody. The following day, sections were incubated 2 h in the appropriate secondary antibody: biotinylated swine anti-rabbit IgG (c-Fos day 1, and orexin A or MCH day 2; cat no. E0353; DAKO, diluted 1:200). Sections were washed again for 30 min in PBST then incubated 1.5 h in an avidin-biotin-peroxidase complex (cat no. PK-6100, Vector Labs, diluted 1:200). […]

C=CC[C@H](N)C(=O)O [1-AG, 1-allylglycine]
c-Fos immunoreactive ORX-A neurons in the DMH/PeF: increased
